From patent US4725683A, “Fluorophenoxyphenoxypropionates and derivatives thereof” (The Dow Chemical Company, priority 1985, dated 1988)

Experiments:
Format in all cases: in vivo
[1] = test system: Wheat; assay: Postemergent activity; settings: Triticum aestivum, post-emergence, 336 h, read-out: % Control
Procedure: (§1) Representative compositions of the present invention were evaluated for the postemergence control of species of plants listed in Table A. In these evaluations, pots of the plant species listed in Table A, grown to a height of about 10 cms, were used. Aqueous spray compositions, containing various amounts of 2-[4-(2-fluoro-4-trifluoromethylphenoxy)-phenoxy]propionic acid methy ester, i.e., 125 ppm, 62.5 ppm, 31.25 ppm, 15.6 ppm, 7.8 ppm and 3.9 ppm, respectively, were applied to separate pots. The spray compositions were made by mixing the active ingredient in acetone to 1/2 the final volume, i.e., twice the final concentration. An equal amount of water was added to the active ingredient/acetone mixture wherein the water contained 0.1 percent by weight of TWEEN® 200 surfactant. The application to the plants was made to the point of run-off and was carried out with conventional spraying equipment. Other pots were sprayed with similar compositions containing no toxicant to serve as controls. Thereafter, the pots were maintained under conditions conducive for plant growth. Two weeks after treatment, the pots were examined for plant growth and evaluated on a scale of 0 to 100 where 0 represents no effect and 100 represents complete kill. The results of the examination of the treated pots are set forth below in Table A.
(§2) Substantially the same procedures as those described in Example A were repeated except that the active ingredients were 2-[4-(4-chloro-2-fluorophenoxy)phenoxy]propionic acid; methyl ester and its R-enantiomer and 2-(4-(4-bromo-2-fluorophenoxy)phenoxy propionic acid; methyl ester and its R enantiomer. The results are listed below in Table B.
(§3) In further operations employing the above general procedures and the indicated test compounds the following results were obtained: […]

[2] = test system: Wild Oats; assay: Postemergent activity; settings: Avena fatua, post-emergence, 336 h
Procedure: as §1, §2, §3

[3] = test system: Barley; assay: Postemergent activity
Procedure: (§4) Representative compositions of the present invention were evaluated for the postemergence control of species of plants listed in Table A. In these evaluations, pots of the plant species listed in Table A, grown to a height of about 10 cms, were used. […] The spray compositions were made by mixing the active ingredient in acetone to 1/2 the final volume, i.e., twice the final concentration. An equal amount of water was added to the active ingredient/acetone mixture wherein the water contained 0.1 percent by weight of TWEEN® 200 surfactant. The application to the plants was made to the point of run-off and was carried out with conventional spraying equipment. […] Thereafter, the pots were maintained under conditions conducive for plant growth.

[4] = test system: Blackgrass; assay: Postemergent activity
Procedure: as §4

[5] = test system: Cheatgrass; assay: Postemergent activity
Procedure: as §4

[6] = test system: Green Foxtail; assay: Postemergent activity
Procedure: as §4

[7] = test system: Yellow Foxtail; assay: Postemergent activity
Procedure: as §4

[8] = test system: Johnson Grass; assay: Preemergent activity; settings: Sorghum halepense, pre-emergence, read-out: Preemergence Control
Summary of the method: (§5)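 Test compound was applied in acetone mixed with an equal volume of water containing 0.1% Tween-20, sprayed preemergence onto seed beds of sandy loam soil sown with the test species. Beds were kept under identical temperature and light. A solvent-only spray served as control.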

[9] = test system: Wheat; assay: Preemergent activity; settings: Triticum aestivum, pre-emergence, read-out: Preemergence Control
Summary of the method: as §5

[10] = test system: Wild Oats; assay: Preemergent activity; settings: Avena fatua, pre-emergence, read-out: Preemergence Control
Summary of the method: as §5

[11] = test system: Yellow Foxtail; assay: Preemergent activity; settings: Setaria, pre-emergence, read-out: Preemergence Control
Summary of the method: as §5

COC(=O)[C@@H](C)Oc1ccc(Oc2ccc(Br)cc2F)cc1 [4-Bromo-(R-Enantiomer), R enantiomer of 2-[4-(4-bromo-2-fluorophenoxy)phenoxy]propionic acid methyl ester]
plant injury at 1.9 ppm ([1]; 1.9 ppm): 0% | plant injury at 3.9 ppm [1]: 0% | plant injury at 7.8 ppm [1]: 0% | plant injury at 15.6 ppm [1]: 0% | plant injury at 31.25 ppm [1]: 0% | plant injury at 62.5 ppm [1]: 0% | plant injury at 125 ppm [1]: 70% | plant injury at 250 ppm [1]: 100% | pest or weed control at 1.9 ppm ([2]; 1.9 ppm): 60% | pest or weed control at 3.9 ppm [2]: 80% | pest or weed control at 7.8 ppm ([2]; read-out: % Control): 80% | pest or weed control at 15.6 ppm ([2]; read-out: % Control): 90% | pest or weed control at 31.25 ppm ([2]; read-out: % Control): 90% | pest or weed control at 62.5 ppm ([2]; read-out: % Control): 100% | pest or weed control at 125 ppm ([2]; read-out: % Control): 100% | pest or weed control at 250 ppm ([2]; read-out: % Control): 100% | % Control ([3]; 1.9 ppm): 0% | % Control ([3]; 3.9 ppm): 0% | % Control ([3]; 7.8 ppm): 0% | % Control ([3]; 15.6 ppm): 0% | % Control ([3]; 31.25 ppm): 0% | % Control ([3]; 62.5 ppm): 95% | % Control ([3]; 125 ppm): 90% | % Control ([3]; 250 ppm): 100% | % Control ([4]; 0.1 ppm): 0% | % Control ([4]; 0.2 ppm): 0% | % Control ([4]; 0.4 ppm): 50% | % Control ([4]; 0.8 ppm): 60% | % Control ([4]; 1.5 ppm): 90% | % Control ([4]; 3.1 ppm): 90% | % Control ([4]; 6.3 ppm): 100% | % Control ([4]; 12.5 ppm): 100% | % Control ([5]; 0.1 ppm): 0% | % Control ([5]; 0.2 ppm): 0% | % Control ([5]; 0.4 ppm): 0% | % Control ([5]; 0.8 ppm): 0% | % Control ([5]; 1.5 ppm): 0% | % Control ([5]; 3.1 ppm): 0% | % Control ([5]; 6.3 ppm): 0% | % Control ([5]; 12.5 ppm): 0% | % Control ([6]; 0.1 ppm): 0% | % Control ([6]; 0.2 ppm): 50% | % Control ([6]; 0.4 ppm): 100% | % Control ([6]; 0.8 ppm): 100% | % Control ([6]; 1.5 ppm): 100% | % Control ([6]; 3.1 ppm): 100% | % Control ([6]; 6.3 ppm): 100% | % Control ([6]; 12.5 ppm): 100% | % Control ([7]; 0.1 ppm): 0% | % Control ([7]; 0.2 ppm): 0% | % Control ([7]; 0.4 ppm): 0% | % Control ([7]; 0.8 ppm): 20% | % Control ([7]; 1.5 ppm): 60% | % Control ([7]; 3.1 ppm): 100% | % Control ([7]; 6.3 ppm): 100% | % Control ([7]; 12.5 ppm): 100%

COC(=O)C(C)Oc1ccc(Oc2ccc(C(F)(F)F)cc2F)cc1 (stereo not drawn) [2-[4-(2-fluoro-4-trifluoromethylphenoxy)phenoxy]propionic acid methyl ester]
plant injury at 3.9 ppm [1]: 0% | plant injury at 7.8 ppm [1]: 60% | plant injury at 15.6 ppm [1]: 90% | plant injury at 31.25 ppm [1]: 100% | plant injury at 62.5 ppm [1]: 100% | plant injury at 125 ppm [1]: 100% | pest or weed control at 3.9 ppm [2]: 0% | pest or weed control at 7.8 ppm ([2]; read-out: % Control): 0% | pest or weed control at 15.6 ppm ([2]; read-out: % Control): 60% | pest or weed control at 31.25 ppm ([2]; read-out: % Control): 100% | pest or weed control at 62.5 ppm ([2]; read-out: % Control): 100% | pest or weed control at 125 ppm ([2]; read-out: % Control): 100% | % Control ([7]; 3.9 ppm): 35% | % Control ([7]; 7.8 ppm): 100% | % Control ([7]; 15.6 ppm): 100% | % Control ([7]; 31.25 ppm): 100% | % Control ([7]; 62.5 ppm): 100% | % Control ([7]; 125 ppm): 100% | pest or weed control at 18 g/ha ([8]; 0.018 kgs/hectare): 20% | pest or weed control at 35 g/ha ([8]; 0.035 kgs/hectare): 60% | pest or weed control at 70 g/ha ([8]; 0.07 kgs/hectare): 90% | pest or weed control at 114 g/ha ([8]; 0.114 kgs/hectare): 100% | pest or weed control at 280 g/ha ([8]; 0.28 kgs/hectare): 100% | plant injury at 18 g/ha ([9]; 0.018 kgs/hectare): 0% | plant injury at 35 g/ha ([9]; 0.035 kgs/hectare): 20% | plant injury at 70 g/ha ([9]; 0.07 kgs/hectare): 90% | plant injury at 114 g/ha ([9]; 0.114 kgs/hectare): 100% | plant injury at 280 g/ha ([9]; 0.28 kgs/hectare): 100% | pest or weed control at 18 g/ha ([10]; 0.018 kgs/hectare): 0% | pest or weed control at 35 g/ha ([10]; 0.035 kgs/hectare): 20% | pest or weed control at 70 g/ha ([10]; 0.07 kgs/hectare): 90% | pest or weed control at 114 g/ha ([10]; 0.114 kgs/hectare): 100% | pest or weed control at 280 g/ha ([10]; 0.28 kgs/hectare): 100% | pest or weed control at 18 g/ha ([11]; 0.018 kgs/hectare): 20% | pest or weed control at 35 g/ha ([11]; 0.035 kgs/hectare): 70% | pest or weed control at 70 g/ha ([11]; 0.07 kgs/hectare): 100% | pest or weed control at 114 g/ha ([11]; 0.114 kgs/hectare): 100% | pest or weed control at 280 g/ha ([11]; 0.28 kgs/hectare): 100%

COC(=O)C(C)Oc1ccc(Oc2ccc(Br)cc2F)cc1 (racemic) [Example 4-Bromo-, 2-[4-(4-bromo-2-fluorophenoxy)phenoxy]propionic acid methyl ester]
plant injury at 3.9 ppm [1]: 0% | plant injury at 7.8 ppm [1]: 0% | plant injury at 15.6 ppm [1]: 0% | plant injury at 31.25 ppm [1]: 0% | plant injury at 62.5 ppm [1]: 0% | plant injury at 125 ppm [1]: 0% | plant injury at 250 ppm [1]: 0% | plant injury at 500 ppm ([1]; 500 ppm): 0% | pest or weed control at 3.9 ppm [2]: 70% | pest or weed control at 7.8 ppm ([2]; read-out: % Control): 80% | pest or weed control at 15.6 ppm ([2]; read-out: % Control): 100% | pest or weed control at 31.25 ppm ([2]; read-out: % Control): 100% | pest or weed control at 62.5 ppm ([2]; read-out: % Control): 100% | pest or weed control at 125 ppm ([2]; read-out: % Control): 95% | pest or weed control at 250 ppm ([2]; read-out: % Control): 100% | pest or weed control at 500 ppm ([2]; 500 ppm, read-out: % Control): 100% | % Control ([3]; 3.9 ppm): 0% | % Control ([3]; 7.8 ppm): 0% | % Control ([3]; 15.6 ppm): 0% | % Control ([3]; 31.25 ppm): 0% | % Control ([3]; 62.5 ppm): 10% | % Control ([3]; 125 ppm): 10% | % Control ([3]; 250 ppm): 10% | % Control ([3]; 500 ppm): 30% | % Control ([4]; 0.2 ppm): 0% | % Control ([4]; 0.4 ppm): 10% | % Control ([4]; 0.8 ppm): 30% | % Control ([4]; 1.5 ppm): 50% | % Control ([4]; 3.1 ppm): 70% | % Control ([4]; 6.25 ppm): 99% | % Control ([4]; 12.5 ppm): 100% | % Control ([4]; 25 ppm): 100% | % Control ([5]; 0.2 ppm): 0% | % Control ([5]; 0.4 ppm): 0% | % Control ([5]; 0.8 ppm): 0% | % Control ([5]; 1.5 ppm): 0% | % Control ([5]; 3.1 ppm): 0% | % Control ([5]; 6.25 ppm): 0% | % Control ([5]; 12.5 ppm): 0% | % Control ([5]; 25 ppm): 0% | % Control ([6]; 0.2 ppm): 20% | % Control ([6]; 0.4 ppm): 90% | % Control ([6]; 0.8 ppm): 90% | % Control ([6]; 1.5 ppm): 100% | % Control ([6]; 3.1 ppm): 100% | % Control ([6]; 6.25 ppm): 100% | % Control ([6]; 12.5 ppm): 100% | % Control ([6]; 25 ppm): 100% | % Control ([7]; 0.2 ppm): 0% | % Control ([7]; 0.4 ppm): 0% | % Control ([7]; 0.8 ppm): 20% | % Control ([7]; 1.5 ppm): 50% | % Control ([7]; 3.1 ppm): 80% | % Control ([7]; 6.25 ppm): 100% | % Control ([7]; 12.5 ppm): 100% | % Control ([7]; 25 ppm): 100%
